Laboratory results taken from ChEMBL document CHEMBL4411284, “Discovery of novel quaternary ammonium compounds based on quinuclidine-3-ol as new potential antimicrobial candidates” (Eur J Med Chem, 2019).
Active and inactive are the calls of the source. The calls are words filed in the database; no cut-off is given here.

Tests used:
Staphylococcus aureus [1] = assay: Bactericidal activity against methicillin-resistant Staphylococcus aureus clinical isolate preincubated for 24 to 48 hrs followed by replating on MHA plates and measured after 18 hrs by broth microdilution assay; format: functional
Staphylococcus aureus [2] = assay: Induction of membrane lysis in Staphylococcus aureus ATCC 29213 at 0.5 to 1 times MIC by spectroflurometric analysis based propidium iodide uptake assay; format: functional, organism-based
Staphylococcus aureus [3] = assay: Bactericidal activity against Staphylococcus aureus ATCC 29213 preincubated for 24 to 48 hrs followed by replating on MHA plates and measured after 18 hrs by broth microdilution assay; format: functional
Staphylococcus aureus [4] = assay: Antimicrobial activity against Staphylococcus aureus ATCC 29213 assessed as live cells at MIC by fluorescence microscopic analysis; format: functional, organism-based
Acinetobacter baumannii [5] = assay: Bactericidal activity against Acinetobacter baumannii ATCC 19606 preincubated for 24 to 48 hrs followed by replating on MHA plates and measured after 18 hrs by broth microdilution assay; format: functional; conditions: ATCC 19606 = CIP 70.34 = JCM 6841
Acinetobacter baumannii [6] = assay: Bactericidal activity against Acinetobacter baumannii clinical isolate preincubated for 24 to 48 hrs followed by replating on MHA plates and measured after 18 hrs by broth microdilution assay; format: functional
Klebsiella pneumoniae [7] = assay: Antimicrobial activity against Klebsiella pneumoniae clinical isolate after 24 to 48 hrs by broth microdilution assay; format: functional
Candida albicans = assay: Antifungal activity against Candida albicans ATCC 90029 after 24 to 48 hrs by broth microdilution assay; format: functional
Staphylococcus aureus [8] = assay: Induction of morphological changes in Staphylococcus aureus ATCC 29213 assessed as cell wall damage at MIC after 3 hrs by atomic force microscopic analysis; format: functional, organism-based
Klebsiella pneumoniae [9] = assay: Bactericidal activity against Klebsiella pneumoniae clinical isolate preincubated for 24 to 48 hrs followed by replating on MHA plates and measured after 18 hrs by broth microdilution assay; format: functional
Pseudomonas aeruginosa [10] = assay: Bactericidal activity against Pseudomonas aeruginosa ATCC 27853 preincubated for 24 to 48 hrs followed by replating on MHA plates and measured after 18 hrs by broth microdilution assay; format: functional
Streptococcus pyogenes [11] = assay: Bactericidal activity against Streptococcus pyogenes ATCC 19615 preincubated for 24 to 48 hrs followed by replating on MHA plates and measured after 18 hrs by broth microdilution assay; format: functional
Staphylococcus aureus [12] = assay: Antimicrobial activity against Staphylococcus aureus ATCC 29213 assessed as dead cells at 4 times MIC by fluorescence microscopic analysis; format: functional, organism-based
Enterococcus faecalis [13] = assay: Antimicrobial activity against Enterococcus faecalis ATCC 29212 after 24 to 48 hrs by broth microdilution assay; format: functional
Staphylococcus aureus [14] = assay: Antimicrobial activity against Staphylococcus aureus ATCC 29213 assessed as bacterial membrane disruption by measuring dead cells at MIC after 15 mins by thiazole orange/propidium iodide staining based flow cytometric analysis (reference value: 3.22%); format: functional
Listeria monocytogenes [15] = assay: Antimicrobial activity against Listeria monocytogenes ATCC 19111 (1/2a) after 24 to 48 hrs by broth microdilution assay; format: functional
Pseudomonas aeruginosa [16] = assay: Antimicrobial activity against Pseudomonas aeruginosa ATCC 27853 after 24 to 48 hrs by broth microdilution assay; format: functional
Penicillium citrinum = assay: Antifungal activity against Penicillium citrinum after 24 to 48 hrs by broth microdilution assay; format: functional
Acinetobacter baumannii [17] = assay: Antimicrobial activity against Acinetobacter baumannii ATCC 19606 after 24 to 48 hrs by broth microdilution assay; format: functional; conditions: ATCC 19606 = CIP 70.34 = JCM 6841
Staphylococcus aureus [18] = assay: Induction of morphological changes in Staphylococcus aureus ATCC 29213 assessed as cell wall damage at MIC after 1 hr by atomic force microscopic analysis; format: functional, organism-based
Enterococcus faecalis [19] = assay: Bactericidal activity against Enterococcus faecalis ATCC 29212 preincubated for 24 to 48 hrs followed by replating on MHA plates and measured after 18 hrs by broth microdilution assay; format: functional
Staphylococcus aureus [20] = assay: Growth inhibition in Staphylococcus aureus ATCC 29213 at 1/4 to 1/2 times MIC after 6 hrs; format: functional, organism-based
Escherichia coli [21] = assay: Antimicrobial activity against Escherichia coli clinical isolate after 24 to 48 hrs by broth microdilution assay; format: functional
Salmonella typhimurium [22] = assay: Antimicrobial activity against Salmonella typhimurium WDCM 00031 after 24 to 48 hrs by broth microdilution assay; format: functional, Salmonella enterica subsp. enterica serovar Typhimurium; conditions: Salmonella enterica
Staphylococcus aureus [23] = assay: Induction of membrane lysis in Staphylococcus aureus ATCC 29213 at 4 to 8 times MIC by spectroflurometric analysis based propidium iodide uptake assay; format: functional, organism-based
Staphylococcus aureus [24] = assay: Antimicrobial activity against Staphylococcus aureus ATCC 29213 assessed as bacterial membrane disruption by measuring live cells at MIC after 15 mins by thiazole orange/propidium iodide staining based flow cytometric analysis (reference value: 88.47%); format: functional
Acinetobacter baumannii [25] = assay: Antimicrobial activity against Acinetobacter baumannii clinical isolate after 24 to 48 hrs by broth microdilution assay; format: functional
Listeria monocytogenes [26] = assay: Bactericidal activity against Listeria monocytogenes ATCC 19111 (1/2a) preincubated for 24 to 48 hrs followed by replating on MHA plates and measured after 18 hrs by broth microdilution assay; format: functional
Staphylococcus aureus [27] = assay: Antibiofilm activity against Staphylococcus aureus ATCC 29213 after 3 days by crystal violet staining based assay; format: functional, organism-based
Staphylococcus aureus [28] = assay: Induction of morphological changes in Staphylococcus aureus ATCC 29213 assessed as cell wall damage at 8 times MIC after 1 hr by atomic force microscopic analysis; format: functional, organism-based
Streptococcus pyogenes [29] = assay: Antimicrobial activity against Streptococcus pyogenes ATCC 19615 after 24 to 48 hrs by broth microdilution assay; format: functional
Staphylococcus aureus [30] = assay: Antibiofilm activity against Staphylococcus aureus ATCC 29213 at 1/32 to 1/2 times MIC after 3 days by crystal violet staining based assay relative to control; format: functional
HEK293 = assay: Cytotoxicity against HEK293 cells assessed as reduction in cell viability after 48 hrs by MTS assay; format: cell-based; conditions: Homo sapiens, HEK293, 48 h
Escherichia coli [31] = assay: Antimicrobial activity against Escherichia coli ATCC 25922 after 24 to 48 hrs by broth microdilution assay; format: functional
Salmonella typhimurium [32] = assay: Bactericidal activity against Salmonella typhimurium WDCM 00031 preincubated for 24 to 48 hrs followed by replating on MHA plates and measured after 18 hrs by broth microdilution assay; format: functional, Salmonella enterica subsp. enterica serovar Typhimurium; conditions: Salmonella enterica
Klebsiella pneumoniae [33] = assay: Bactericidal activity against Klebsiella pneumoniae ATCC 13883 preincubated for 24 to 48 hrs followed by replating on MHA plates and measured after 18 hrs by broth microdilution assay; format: functional
Aspergillus niger = assay: Antifungal activity against Aspergillus niger after 24 to 48 hrs by broth microdilution assay; format: functional
Escherichia coli [34] = assay: Bactericidal activity against Escherichia coli clinical isolate preincubated for 24 to 48 hrs followed by replating on MHA plates and measured after 18 hrs by broth microdilution assay; format: functional
Staphylococcus aureus [35] = assay: Antimicrobial activity against methicillin-resistant Staphylococcus aureus clinical isolate after 24 to 48 hrs by broth microdilution assay; format: functional
Staphylococcus aureus [36] = assay: Antimicrobial activity against Staphylococcus aureus ATCC 29213 after 24 to 48 hrs by broth microdilution assay; format: functional
Staphylococcus aureus [37] = assay: Antimicrobial activity against Staphylococcus aureus ATCC 29213 assessed as bacterial membrane disruption by measuring live cells at 4 times MIC after 15 mins by thiazole orange/propidium iodide staining based flow cytometric analysis (reference value: 88.47%); format: functional
Escherichia coli [38] = assay: Bactericidal activity against Escherichia coli ATCC 25922 preincubated for 24 to 48 hrs followed by replating on MHA plates and measured after 18 hrs by broth microdilution assay; format: functional
TERT-RPE1 = assay: Cytotoxicity against human RPE1 cells assessed as reduction in cell viability after 48 hrs by MTS assay; format: cell-based; conditions: RPE-1, 48 h
Staphylococcus aureus [39] = assay: Antimicrobial activity against Staphylococcus aureus ATCC 29213 assessed as bacterial membrane disruption by measuring dead cells at 4 times MIC after 15 mins by thiazole orange/propidium iodide staining based flow cytometric analysis (reference value: 3.22%); format: functional
Klebsiella pneumoniae [40] = assay: Antimicrobial activity against Klebsiella pneumoniae ATCC 13883 after 24 to 48 hrs by broth microdilution assay; format: functional

Structure (SMILES): CCCCCCCCCCCCCC[N+]12CCC(CC1)C(O)C2.[Br-] (configuration not stated)
- MBC (Staphylococcus aureus [1]): 3.9 µg/mL
- Activity (Staphylococcus aureus [2]): inactive
- MBC (Staphylococcus aureus [3]): 0.97 µg/mL
- Activity (Staphylococcus aureus [4]): Active
- MBC (Acinetobacter baumannii [5]): 15.6 µg/mL
- MBC (Acinetobacter baumannii [6]): 15.6 µg/mL
- MIC (Klebsiella pneumoniae [7]): 15.6 µg/mL
- MIC50 (Candida albicans): 0.06 µg/mL
- MIC90 (Candida albicans): 0.12 µg/mL
- Activity (Staphylococcus aureus [8]): Active
- MBC (Klebsiella pneumoniae [9]): 15.6 µg/mL
- MBC (Pseudomonas aeruginosa [10]): 31.2 µg/mL
- MBC (Streptococcus pyogenes [11]): 0.06 µg/mL
- Activity (Staphylococcus aureus [12]): Active
- MIC (Enterococcus faecalis [13]): 0.97 µg/mL
- Activity (Staphylococcus aureus [14]): 14.54%
- MIC (Listeria monocytogenes [15]): 3.9 µg/mL
- MIC (Pseudomonas aeruginosa [16]): 31.2 µg/mL
- MIC50 (Penicillium citrinum): 1.95 µg/mL
- MIC90 (Penicillium citrinum): 3.9 µg/mL
- MIC (Acinetobacter baumannii [17]): 15.6 µg/mL
- Activity (Staphylococcus aureus [18]): inactive
- MBC (Enterococcus faecalis [19]): 0.97 µg/mL
- growth inhibition (GI) (Staphylococcus aureus [20]): Active
- MIC (Escherichia coli [21]): 15.6 µg/mL
- MIC (Salmonella typhimurium [22]): 31.2 µg/mL
- Activity (Staphylococcus aureus [23]): Active
- Activity (Staphylococcus aureus [24]): 66.27%
- MIC (Acinetobacter baumannii [25]): 7.8 µg/mL
- MBC (Listeria monocytogenes [26]): 3.9 µg/mL
- Activity (Staphylococcus aureus [27]): Dose-dependent effect
- Activity (Staphylococcus aureus [28]): Active
- MIC (Streptococcus pyogenes [29]): 0.06 µg/mL
- Activity (Staphylococcus aureus [30]): 2.3 - 84%
- IC50 (HEK293): 1 µg/mL
- MIC (Escherichia coli [31]): 3.9 µg/mL
- MBC (Salmonella typhimurium [32]): 31.2 µg/mL
- MBC (Klebsiella pneumoniae [33]): 15.6 µg/mL
- MIC50 (Aspergillus niger): 0.48 µg/mL
- MIC90 (Aspergillus niger): 0.97 µg/mL
- MBC (Escherichia coli [34]): 15.6 µg/mL
- MIC (Staphylococcus aureus [35]): 3.9 µg/mL
- MIC (Staphylococcus aureus [36]): 0.97 µg/mL
- Activity (Staphylococcus aureus [37]): 23.66%
- MBC (Escherichia coli [38]): 7.8 µg/mL
- IC50 (TERT-RPE1): 15 µg/mL
- Activity (Staphylococcus aureus [39]): 55.69%
- MIC (Klebsiella pneumoniae [40]): 15.6 µg/mL

Structure (SMILES): CCCCCCCCCCCC[N+]12CCC(CC1)C(O)C2.[Br-] (configuration not stated)
- MBC (Staphylococcus aureus [1]): 62.5 µg/mL
- MBC (Staphylococcus aureus [3]): 15.6 µg/mL
- MBC (Acinetobacter baumannii [5]): 250 µg/mL
- MBC (Acinetobacter baumannii [6]): 125 µg/mL
- MIC (Klebsiella pneumoniae [7]): 250 µg/mL
- MIC50 (Candida albicans): 1.95 µg/mL
- MIC90 (Candida albicans): 3.9 µg/mL
- MBC (Klebsiella pneumoniae [9]): 250 µg/mL
- MBC (Pseudomonas aeruginosa [10]): 500 µg/mL
- MBC (Streptococcus pyogenes [11]): 0.48 µg/mL
- MIC (Enterococcus faecalis [13]): 15.6 µg/mL
- MIC (Listeria monocytogenes [15]): 31.2 µg/mL
- MIC (Pseudomonas aeruginosa [16]): 250 µg/mL
- MIC50 (Penicillium citrinum): 31.2 µg/mL
- MIC90 (Penicillium citrinum): 62.5 µg/mL
- MIC (Acinetobacter baumannii [17]): 125 µg/mL
- MBC (Enterococcus faecalis [19]): 15.6 µg/mL
- MIC (Escherichia coli [21]): 62.5 µg/mL
- MIC (Salmonella typhimurium [22]): 250 µg/mL
- MIC (Acinetobacter baumannii [25]): 62.5 µg/mL
- MBC (Listeria monocytogenes [26]): 31.2 µg/mL
- MIC (Streptococcus pyogenes [29]): 0.48 µg/mL
- IC50 (HEK293): 1 µg/mL
- MIC (Escherichia coli [31]): 62.5 µg/mL
- MBC (Salmonella typhimurium [32]): 250 µg/mL
- MBC (Klebsiella pneumoniae [33]): 125 µg/mL
- MIC50 (Aspergillus niger): 7.8 µg/mL
- MIC90 (Aspergillus niger): 15.6 µg/mL
- MBC (Escherichia coli [34]): 62.5 µg/mL
- MIC (Staphylococcus aureus [35]): 62.5 µg/mL
- MIC (Staphylococcus aureus [36]): 15.6 µg/mL
- MBC (Escherichia coli [38]): 62.5 µg/mL
- IC50 (TERT-RPE1): 8 µg/mL
- MIC (Klebsiella pneumoniae [40]): 125 µg/mL
